Reference: PMC11084959 (International Journal of Molecular Sciences, 2024)
Entries after “also recorded” stand apart in the source; their conditions may differ. Where a SMILES comes first, the peptide text is derived from it. Bridges are numbered along the chain shown (N, C = ends). Where no end group is shown, it is not given here.

Legend:
[1] = biological target: T1, recombinant hCaV3.2 channels (Homo sapiens, UniProt O95180); experiment: QPatch whole-cell patch-clamp, CaV3.2; format: cell-based
T1 construct: expressed in transfected cells
T1 sequence (O95180 whole entry): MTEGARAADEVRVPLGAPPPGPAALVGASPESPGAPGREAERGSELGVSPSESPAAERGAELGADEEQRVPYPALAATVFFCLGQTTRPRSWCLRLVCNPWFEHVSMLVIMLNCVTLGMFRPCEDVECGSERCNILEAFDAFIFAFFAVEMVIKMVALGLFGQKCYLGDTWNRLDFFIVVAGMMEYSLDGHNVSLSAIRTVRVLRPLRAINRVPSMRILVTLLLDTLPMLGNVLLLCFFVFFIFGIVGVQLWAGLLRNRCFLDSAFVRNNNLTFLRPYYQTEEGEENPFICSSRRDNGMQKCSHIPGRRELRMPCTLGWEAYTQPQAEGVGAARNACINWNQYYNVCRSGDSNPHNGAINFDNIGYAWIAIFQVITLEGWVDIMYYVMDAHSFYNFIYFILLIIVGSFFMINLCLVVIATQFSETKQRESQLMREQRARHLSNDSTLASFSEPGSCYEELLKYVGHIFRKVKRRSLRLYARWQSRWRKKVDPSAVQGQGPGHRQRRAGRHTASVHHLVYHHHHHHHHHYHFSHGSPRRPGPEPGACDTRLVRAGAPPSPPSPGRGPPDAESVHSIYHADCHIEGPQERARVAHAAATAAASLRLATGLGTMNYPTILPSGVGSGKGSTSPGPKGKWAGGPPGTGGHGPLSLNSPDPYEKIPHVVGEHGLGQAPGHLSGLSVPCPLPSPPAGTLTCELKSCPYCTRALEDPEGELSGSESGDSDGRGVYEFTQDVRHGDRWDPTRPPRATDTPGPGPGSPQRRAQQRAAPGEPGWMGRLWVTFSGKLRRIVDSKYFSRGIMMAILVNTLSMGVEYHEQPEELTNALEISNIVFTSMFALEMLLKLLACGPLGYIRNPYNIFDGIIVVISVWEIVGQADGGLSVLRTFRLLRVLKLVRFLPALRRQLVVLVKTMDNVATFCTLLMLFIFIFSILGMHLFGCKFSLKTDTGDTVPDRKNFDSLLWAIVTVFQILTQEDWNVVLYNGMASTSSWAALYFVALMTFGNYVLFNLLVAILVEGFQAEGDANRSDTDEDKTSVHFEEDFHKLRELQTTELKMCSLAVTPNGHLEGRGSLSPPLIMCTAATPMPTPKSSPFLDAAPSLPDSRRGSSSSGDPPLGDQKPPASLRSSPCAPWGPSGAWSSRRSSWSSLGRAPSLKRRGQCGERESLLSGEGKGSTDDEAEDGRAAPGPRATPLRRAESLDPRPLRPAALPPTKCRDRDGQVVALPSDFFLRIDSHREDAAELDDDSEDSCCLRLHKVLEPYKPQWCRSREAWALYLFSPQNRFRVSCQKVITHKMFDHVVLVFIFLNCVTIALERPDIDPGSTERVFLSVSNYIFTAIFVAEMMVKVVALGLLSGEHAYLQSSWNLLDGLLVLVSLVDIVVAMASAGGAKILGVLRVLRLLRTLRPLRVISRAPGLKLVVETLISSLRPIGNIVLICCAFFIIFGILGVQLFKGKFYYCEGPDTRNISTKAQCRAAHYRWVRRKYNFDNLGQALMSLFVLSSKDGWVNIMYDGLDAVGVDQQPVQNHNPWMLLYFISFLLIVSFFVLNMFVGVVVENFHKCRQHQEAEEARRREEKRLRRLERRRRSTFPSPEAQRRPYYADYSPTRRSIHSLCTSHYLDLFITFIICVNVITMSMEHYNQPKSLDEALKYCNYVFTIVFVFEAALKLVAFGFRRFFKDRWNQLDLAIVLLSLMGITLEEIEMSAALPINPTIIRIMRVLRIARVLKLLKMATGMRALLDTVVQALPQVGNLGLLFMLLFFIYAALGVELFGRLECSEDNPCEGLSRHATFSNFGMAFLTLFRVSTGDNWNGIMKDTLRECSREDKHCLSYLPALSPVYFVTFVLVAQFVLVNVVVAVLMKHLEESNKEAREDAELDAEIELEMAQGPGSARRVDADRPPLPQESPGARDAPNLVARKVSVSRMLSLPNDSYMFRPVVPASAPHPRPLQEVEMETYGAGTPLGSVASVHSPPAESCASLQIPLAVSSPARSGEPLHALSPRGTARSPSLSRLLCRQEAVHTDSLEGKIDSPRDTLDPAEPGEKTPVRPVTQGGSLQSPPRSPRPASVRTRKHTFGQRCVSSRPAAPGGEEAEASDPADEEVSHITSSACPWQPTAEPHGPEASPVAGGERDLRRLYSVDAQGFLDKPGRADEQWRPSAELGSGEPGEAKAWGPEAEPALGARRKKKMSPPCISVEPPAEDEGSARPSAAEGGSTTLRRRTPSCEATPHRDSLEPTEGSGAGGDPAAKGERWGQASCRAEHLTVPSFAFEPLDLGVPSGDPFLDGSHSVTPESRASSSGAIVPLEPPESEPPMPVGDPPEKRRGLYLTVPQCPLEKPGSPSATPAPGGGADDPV
Description: (§1) The human embryonic kidney 293 (HEK 293) cell lines (from Emmanuel Bourinet, Montpellier, France) stably expressing CaV3.2 or CaV3.3 [41] were cultured under 5% carbon dioxide at 37 °C in Dulbecco’s Modified Eagle Medium (DMEM) Glutamax (Gibco, Life Technologies, Carlsbad, CA, USA) supplemented with 10% (v/v) fetal bovine serum (FBS), 100 U/mL penicillin, 100 μg/mL streptomycin (Gibco, Life Technologies), and 750 μg/mL geneticin (G418) (Gibco, Life Technologies). The Chinese Hamster Ovary (CHO) cell lines (Emmanuel Bourinet, Montpellier, France) expressing CaV3.1 [42] were cultured under 5% carbon dioxide at 37 °C in Alpha Minimum Essential Media (MEM) Glutamax (Gibco, Life Technologies), supplemented with 10% (v/v) fetal bovine serum (FBS) and 300 μg/mL geneticin (G418) (Gibco, Life Technologies). The human neuroblastoma SH-SY5Y cells (Victor Diaz, Goettingen, Germany) were cultured under 5% carbon dioxide at 37 °C in RPMI 1640 antibiotic-free medium (Invitrogen, Carlsbad, CA, USA), supplemented with 15% FBS and 2 mM GlutaMAX™ (Invitrogen). D-PBS (Gibco, Life Technologies) was used to wash the cells, and 0.25% Trypsin-EDTA (Gibco, Life Technologies) was used to detach the cells from the flask surface. They were split in a ratio of 1:5 (ideally 1000 cells/cm^2) when they reached 70–80% confluence (every 2–3 days).
(§2) Whole-cell patch-clamp experiments were performed on an automated electrophysiology platform QPatch 16 X (Sophion Bioscience A/S, Ballerup, Denmark) in a single-hole configuration using 16-channel planar patch chip QPlates (Sophion Bioscience A/S). The extracellular recording solution contained, in mM: TEACl 157, MgCl2 0.5, CaCl2 5, and HEPES 10; pH 7.4 adjusted with TEAOH; and osmolarity 320 mOsm. The intracellular pipette solution contained, in mM: CsF 140, EGTA 1, HEPES 10, and NaCl 10; pH 7.2 adjusted with CsOH; and osmolarity 325 mOsm. […]
(§3) The data were plotted and analyzed using GraphPad Prism v8.0 (GraphPad Software Inc., San Diego, CA, USA). […]

[2] = biological target: T2, recombinant hCaV3.3 channels (Homo sapiens, UniProt Q9P0X4); experiment: QPatch whole-cell patch-clamp, CaV3.3; format: cell-based
T2 construct: expressed in transfected cells
T2 sequence (Q9P0X4 whole entry): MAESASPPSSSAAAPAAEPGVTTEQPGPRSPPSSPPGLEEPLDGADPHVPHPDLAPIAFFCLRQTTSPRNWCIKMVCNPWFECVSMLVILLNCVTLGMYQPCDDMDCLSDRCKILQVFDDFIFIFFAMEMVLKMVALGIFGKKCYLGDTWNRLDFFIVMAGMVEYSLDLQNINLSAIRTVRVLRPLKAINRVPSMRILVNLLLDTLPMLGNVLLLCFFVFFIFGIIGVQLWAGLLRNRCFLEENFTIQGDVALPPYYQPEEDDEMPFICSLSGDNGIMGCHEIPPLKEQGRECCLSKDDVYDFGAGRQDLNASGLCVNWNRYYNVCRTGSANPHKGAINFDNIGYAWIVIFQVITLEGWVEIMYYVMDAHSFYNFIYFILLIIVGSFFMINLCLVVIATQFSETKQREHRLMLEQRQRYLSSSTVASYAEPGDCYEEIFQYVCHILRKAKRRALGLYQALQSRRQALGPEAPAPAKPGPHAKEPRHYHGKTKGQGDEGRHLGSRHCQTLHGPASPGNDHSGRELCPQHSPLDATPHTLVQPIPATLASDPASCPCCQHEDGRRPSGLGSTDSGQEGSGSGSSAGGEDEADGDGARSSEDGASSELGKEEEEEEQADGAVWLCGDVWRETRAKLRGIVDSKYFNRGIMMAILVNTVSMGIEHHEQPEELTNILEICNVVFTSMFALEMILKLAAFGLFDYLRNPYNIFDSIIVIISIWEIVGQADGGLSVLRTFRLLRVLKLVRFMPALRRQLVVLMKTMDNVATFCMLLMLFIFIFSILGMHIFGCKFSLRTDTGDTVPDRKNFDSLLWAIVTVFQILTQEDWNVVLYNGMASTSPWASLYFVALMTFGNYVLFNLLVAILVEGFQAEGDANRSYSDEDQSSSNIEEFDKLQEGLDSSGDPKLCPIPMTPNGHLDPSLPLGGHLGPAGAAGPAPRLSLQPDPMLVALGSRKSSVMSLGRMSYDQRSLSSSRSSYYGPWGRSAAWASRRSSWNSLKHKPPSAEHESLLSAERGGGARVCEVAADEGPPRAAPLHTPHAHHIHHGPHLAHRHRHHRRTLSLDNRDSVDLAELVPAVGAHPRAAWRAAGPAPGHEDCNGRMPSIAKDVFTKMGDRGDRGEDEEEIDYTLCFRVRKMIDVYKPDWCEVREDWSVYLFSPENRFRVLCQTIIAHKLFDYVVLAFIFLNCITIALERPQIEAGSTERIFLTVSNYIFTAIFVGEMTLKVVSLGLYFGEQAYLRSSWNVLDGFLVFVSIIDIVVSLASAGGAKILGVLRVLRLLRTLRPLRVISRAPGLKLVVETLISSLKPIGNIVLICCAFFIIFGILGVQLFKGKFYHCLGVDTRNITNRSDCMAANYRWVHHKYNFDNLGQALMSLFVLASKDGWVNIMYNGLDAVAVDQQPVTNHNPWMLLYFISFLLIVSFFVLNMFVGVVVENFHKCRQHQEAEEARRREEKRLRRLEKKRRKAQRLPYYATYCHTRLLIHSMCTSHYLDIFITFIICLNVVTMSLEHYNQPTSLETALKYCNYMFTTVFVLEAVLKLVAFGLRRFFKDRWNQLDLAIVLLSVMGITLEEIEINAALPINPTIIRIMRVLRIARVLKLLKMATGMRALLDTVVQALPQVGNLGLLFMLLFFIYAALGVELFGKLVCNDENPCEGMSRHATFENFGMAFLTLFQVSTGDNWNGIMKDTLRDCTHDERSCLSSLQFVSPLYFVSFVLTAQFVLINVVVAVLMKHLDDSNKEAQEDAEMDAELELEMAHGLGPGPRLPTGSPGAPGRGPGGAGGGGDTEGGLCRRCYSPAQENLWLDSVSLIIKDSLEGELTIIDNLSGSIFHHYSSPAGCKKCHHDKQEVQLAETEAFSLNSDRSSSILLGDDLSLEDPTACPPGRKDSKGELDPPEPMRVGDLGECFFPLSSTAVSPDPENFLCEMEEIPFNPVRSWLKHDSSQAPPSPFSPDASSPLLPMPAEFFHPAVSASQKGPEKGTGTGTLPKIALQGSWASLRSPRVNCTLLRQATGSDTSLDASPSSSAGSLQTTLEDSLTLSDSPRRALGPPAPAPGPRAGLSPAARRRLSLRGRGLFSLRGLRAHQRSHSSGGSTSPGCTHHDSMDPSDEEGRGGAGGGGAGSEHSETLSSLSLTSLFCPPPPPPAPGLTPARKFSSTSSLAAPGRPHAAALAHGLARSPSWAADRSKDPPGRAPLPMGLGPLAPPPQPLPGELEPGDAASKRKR
Description: as §1, §2, §3

[3] = test system: recombinant hCaV3.1 channel; experiment: QPatch whole-cell patch-clamp, CaV3.1; format: cell-based; conditions: human CaV3.1 in CHO cells
Description: as §1, with “They were split in a ratio of 1:5 (ideally 1000 cells/cm^2) when they reached 70–80% confluence (every 2–3 days).” left out
as §3

human HVA N-type CaV2.2 = experiment: N-type CaV2.2 FLIPR assay in SH-SY5Y cells; format: cell-based; conditions: 0.781–200 µM, 10 µM nifedipine, agonist 90 mM KCl + 5 mM CaCl2, n = 4
Description: as §1, with “D-PBS (Gibco, Life Technologies) was used to wash the cells, and 0.25% Trypsin-EDTA (Gibco, Life Technologies) was used to detach the cells from the flask surface. They were split in a ratio of 1:5 (ideally 1000 cells/cm^2) when they reached 70–80% confluence (every 2–3 days).” left out
(§4) SH-SY5Y cells were seeded into 384-well black wall clear bottom plates at a density of 15,000 cells per well, resulting in 90–95% confluence after 24 h. […] The fluorescence readings were recorded and converted as described previously, and an agonist containing 90 mM KCl + 5 mM CaCl2 was used in the second addition.

L-type CaVs = experiment: L-type CaV FLIPR assay in SH-SY5Y cells; format: cell-based, human; conditions: 0.781–200 µM, 1 µM CVID, agonist 90 mM KCl + 5 mM CaCl2, n = 4
Description: as §1, with “D-PBS (Gibco, Life Technologies) was used to wash the cells, and 0.25% Trypsin-EDTA (Gibco, Life Technologies) was used to detach the cells from the flask surface. They were split in a ratio of 1:5 (ideally 1000 cells/cm^2) when they reached 70–80% confluence (every 2–3 days).” left out
as §4

[4] = test system: Lucilia cuprina (Australian sheep blowflies); experiment: Insecticidal activity against sheep blowflies (injection); format: in vivo; conditions: 1, 4 and 10 μg per fly injected; 10 flies per group; paralytic effects at 0.5, 1, 2 and 24 h
[5] = test system: T-type CaVs (CaV3.1 and CaV3.2); conditions: ref [9],[10]; cited from earlier work
Text: Scorpions are venomous arachnids of the order Scorpiones, with around 2798 currently (December 2023) described species distributed on all continents except Antarctica. Scorpion venoms are complex mixtures of peptides, enzymes, mucoproteins, amino acids (aa), nucleotides, lipids, amines, heterocyclic components, inorganic salts, and probably other yet to be described substances. They are rich sources of neurotoxic polypeptides that recognize and bind to ion channels of excitable and non-excitable cells and modulate their functional properties. Based on the specific binding propertie ...

C[C@@H](O)[C@@H]1NC(=O)[C@@H](NC(=O)[C@@H](N)Cc2c[nH]cn2)CSSC[C@@H](C(=O)N[C@@H](Cc2c[nH]c3ccccc23)C(N)=O)NC(=O)[C@H](Cc2c[nH]cn2)NC(=O)[C@H](CC(N)=O)NC(=O)[C@H](CO)NC(=O)[C@H](CC(N)=O)NC(=O)[C@@H]2CCCN2C1=O [Hf1a-NH2] (H-HCTPNSNHCW-NH2; disulfide 2-9)
inhibition at 25 µM ([1]; 25 μM, holding −90 mV, 200 ms to −25 mV, n = 4, read-out: CaV3.2 current inhibition at 25 μM): 31.7%
IC50 ([1]; partial inhibition, QPatch, holding −90 mV, 200 ms steps to −25 mV, 5 mM CaCl2, 0.1% BSA, pH 7.4, n = 4, means ± SEM, read-out: IC50 (CaV3.2 depolarized currents)): 1180 nM
inhibition at 25 µM ([2]; 25 μM, holding −90 mV, 200 ms to −10 mV, n = 4, read-out: CaV3.3 current inhibition at 25 μM): 44.6%
IC50 ([2]; partial inhibition, QPatch, holding −90 mV, 200 ms steps to −10 mV, 5 mM CaCl2, 0.1% BSA, pH 7.4, n = 4, means ± SEM, read-out: IC50 (CaV3.3 depolarized currents)): 490 nM
Adverse effects on locomotor performance (24 h post-injection, intraplantar): no adverse effects on locomotor performance
Abnormal motor function during treadmill run (mouse, in vivo): no abnormal motor functions like foot slips were noticed
Distance covered on treadmill (mouse, in vivo): showed no difference

HCTPNSNHCW (disulfide 2-9 (inferred)) [Hf1a-OH]
Effect on CaV3.1 current (in words) [3]: failed to show activity in any of the three subtypes; also recorded: did not show activity against any of the three T-type subtypes
Effect on CaV3.2 current (in words) ([1]; QPatch, human CaV3.2 in HEK 293 cells): failed to show activity in any of the three subtypes; also recorded: did not show activity against any of the three T-type subtypes
Effect on CaV3.3 current (in words) ([2]; QPatch, human CaV3.3 in HEK 293 cells): failed to show activity in any of the three subtypes; also recorded: did not show activity against any of the three T-type subtypes
Effect on N-type CaV2.2 (human HVA N-type CaV2.2): neither form showed activity; also recorded: neither form of ω-Buthitoxin-Hf1a affected N-type or L-type CaVs; also recorded: Neither Hf1a-NH2 nor Hf1a-OH showed activity against L- and N-type HVA CaVs
Effect on L-type CaVs (L-type CaVs): neither form showed activity; also recorded: neither form of ω-Buthitoxin-Hf1a affected N-type or L-type CaVs; also recorded: Neither Hf1a-NH2 nor Hf1a-OH showed activity against L- and N-type HVA CaVs
Insecticidal activity against adult sheep blowflies [4]: no insecticidal activity; also recorded: neither Hf1a-OH nor Hf1a-NH2 showed observable insecticidal activity

B1: kurtoxin (protein, UniProt P58910 1-63, looked up)
Kurtoxin: KIDGYPVDYWNCKRICWYNNKYCNDLCKGLKADSGYCWGWTLSCYCQGLPDNARIKRSGRCRA
Selective binding to T-type CaVs (CaV3.1 and CaV3.2) [5]: first and only scorpion toxin shown to selectively bind T-type CaVs (CaV3.1 and CaV3.2)
